Assay results as given in ChEMBL document CHEMBL1773059, “NMS-P937, a 4,5-dihydro-1H-pyrazolo[4,3-h]quinazoline derivative as potent and selective Polo-like kinase 1 inhibitor” (Bioorg Med Chem Lett, 2011).

How the values were obtained:
[1] = target: Tyrosine-protein kinase Lyn (Homo sapiens, UniProt P07948); test: Inhibition of LYN assessed as [33P]gamma-ATP incorporation into substrate after 60 mins by gamma counting
[2] = tested on: Mus musculus; test: Toxicity in CD1 nu/nu mouse xenografted with human HCT116 cells assessed as mortality at 90 mg/kg, po BID administered on days 1 to 2 in weekly scheduling for 4 cycles; format: organism-based, HCT-116; parameters: dose 90 mg/kg, route oral; conditions: in vivo
[3] = tested on: Mus musculus; test: Toxicity in CD1 nu/nu mouse xenografted with human HCT116 cells assessed as mortality at 120 mg/kg, po BID administered on days 1 to 2 in weekly scheduling for 4 cycles; format: organism-based, HCT-116; parameters: dose 120 mg/kg, route oral; conditions: in vivo
[4] = tested on: Mus musculus; test: Toxicity in CD1 nu/nu mouse xenografted with human HCT116 cells assessed as reversible body weight loss at 120 mg/kg, po once daily administered on days 1 to 2 in weekly scheduling for 4 cycles measured on day 29; conditions: in vivo
[5] = target: Cyclin-dependent kinase 2/cyclin A (Homo sapiens, UniProt P24941); test: Inhibition of CDK2/CYCA assessed as [33P]gamma-ATP incorporation into substrate after 60 mins by gamma counting; format: protein-complex assay
[6] = target: Serine/threonine-protein kinase NIM1 (Homo sapiens, UniProt Q8IY84); test: Inhibition of NIM1 assessed as [33P]gamma-ATP incorporation into substrate after 60 mins by gamma counting
[7] = target: MAP kinase-activated protein kinase 2 (Homo sapiens, UniProt P49137); test: Inhibition of MAPKAPK2 assessed as [33P]gamma-ATP incorporation into substrate after 60 mins by gamma counting
[8] = target: Vascular endothelial growth factor receptor 3 (Homo sapiens, UniProt P35916); test: Inhibition of VEGFR3 assessed as [33P]gamma-ATP incorporation into substrate after 60 mins by gamma counting
[9] = target: Serine/threonine-protein kinase PAK 4 (Homo sapiens, UniProt O96013); test: Inhibition of PAK4 assessed as [33P]gamma-ATP incorporation into substrate after 60 mins by gamma counting
[10] = target: CDC7/DBF4 (Cell division cycle 7-related protein kinase/Activator of S phase kinase) (Homo sapiens, UniProt O00311); test: Inhibition of CDC7/DBF4 assessed as [33P]gamma-ATP incorporation into substrate after 60 mins by gamma counting; format: protein-complex assay
Sequence of CDC7/DBF4 (Cell division cycle 7-related protein kinase/Activator of S phase kinase) (Q9UBU7 whole entry): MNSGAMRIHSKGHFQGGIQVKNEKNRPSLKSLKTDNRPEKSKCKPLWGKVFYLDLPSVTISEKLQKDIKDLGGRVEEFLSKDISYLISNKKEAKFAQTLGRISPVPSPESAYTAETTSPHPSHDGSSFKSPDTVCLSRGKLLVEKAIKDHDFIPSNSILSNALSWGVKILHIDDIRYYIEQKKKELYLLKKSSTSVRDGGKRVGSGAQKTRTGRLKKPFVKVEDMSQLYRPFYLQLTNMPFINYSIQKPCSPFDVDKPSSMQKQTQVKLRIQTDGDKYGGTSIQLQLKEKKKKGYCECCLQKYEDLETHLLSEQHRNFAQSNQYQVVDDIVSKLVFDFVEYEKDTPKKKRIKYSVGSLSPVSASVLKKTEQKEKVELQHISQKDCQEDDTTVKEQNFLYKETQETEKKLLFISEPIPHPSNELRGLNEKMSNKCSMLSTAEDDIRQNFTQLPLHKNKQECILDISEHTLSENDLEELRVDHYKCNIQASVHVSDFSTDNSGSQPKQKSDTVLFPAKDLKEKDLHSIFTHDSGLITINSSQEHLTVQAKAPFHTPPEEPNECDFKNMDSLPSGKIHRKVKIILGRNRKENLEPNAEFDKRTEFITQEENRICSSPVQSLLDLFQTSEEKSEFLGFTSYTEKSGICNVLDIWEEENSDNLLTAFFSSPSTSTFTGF
Sequence of CDC7/DBF4 (Cell division cycle 7-related protein kinase/Activator of S phase kinase) (O00311 whole entry): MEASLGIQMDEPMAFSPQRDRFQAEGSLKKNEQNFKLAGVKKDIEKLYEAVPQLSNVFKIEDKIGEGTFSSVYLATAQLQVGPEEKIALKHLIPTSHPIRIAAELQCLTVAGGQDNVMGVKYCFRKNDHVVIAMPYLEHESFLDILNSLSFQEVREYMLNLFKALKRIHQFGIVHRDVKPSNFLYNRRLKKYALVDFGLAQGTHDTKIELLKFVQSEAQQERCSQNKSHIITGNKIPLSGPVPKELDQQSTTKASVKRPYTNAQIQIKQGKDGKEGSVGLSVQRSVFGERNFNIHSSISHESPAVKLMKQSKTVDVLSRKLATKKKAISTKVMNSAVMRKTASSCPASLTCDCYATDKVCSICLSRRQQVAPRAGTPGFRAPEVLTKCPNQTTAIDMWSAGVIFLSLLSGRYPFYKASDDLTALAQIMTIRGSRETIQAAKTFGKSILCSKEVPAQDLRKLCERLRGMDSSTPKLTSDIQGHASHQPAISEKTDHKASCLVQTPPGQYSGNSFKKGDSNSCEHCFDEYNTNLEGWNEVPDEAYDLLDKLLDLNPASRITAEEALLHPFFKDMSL

[11] = Solubility of compound in 10% Tween 80; format: physicochemical
[12] = target: Serine/threonine-protein kinase pim-2 (Homo sapiens, UniProt Q9P1W9); test: Inhibition of PIM2 assessed as [33P]gamma-ATP incorporation into substrate after 60 mins by gamma counting
[13] = target: Maternal embryonic leucine zipper kinase (Homo sapiens, UniProt Q14680); test: Inhibition of MELK assessed as [33P]gamma-ATP incorporation into substrate after 60 mins by gamma counting
[14] = target: Glycogen synthase kinase-3 beta (Homo sapiens, UniProt P49841); test: Inhibition of GSK3-beta assessed as [33P]gamma-ATP incorporation into substrate after 60 mins by gamma counting
[15] = target: Tyrosine-protein kinase JAK1 (Homo sapiens, UniProt P23458); test: Inhibition of JAK1 assessed as [33P]gamma-ATP incorporation into substrate after 60 mins by gamma counting
[16] = target: Non-receptor tyrosine-protein kinase TYK2 (Homo sapiens, UniProt P29597); test: Inhibition of TYK2 assessed as [33P]gamma-ATP incorporation into substrate after 60 mins by gamma counting
[17] = Apparent permeability of the compound by PAMPA assay; format: ADME
[18] = target: High affinity nerve growth factor receptor (Homo sapiens, UniProt P04629); test: Inhibition of TRKA assessed as [33P]gamma-ATP incorporation into substrate after 60 mins by gamma counting
[19] = target: Mitogen-activated protein kinase 14 (Homo sapiens, UniProt Q16539); test: Inhibition of P38alpha assessed as [33P]gamma-ATP incorporation into substrate after 60 mins by gamma counting
Sequence of Mitogen-activated protein kinase 14 (Q16539 whole entry): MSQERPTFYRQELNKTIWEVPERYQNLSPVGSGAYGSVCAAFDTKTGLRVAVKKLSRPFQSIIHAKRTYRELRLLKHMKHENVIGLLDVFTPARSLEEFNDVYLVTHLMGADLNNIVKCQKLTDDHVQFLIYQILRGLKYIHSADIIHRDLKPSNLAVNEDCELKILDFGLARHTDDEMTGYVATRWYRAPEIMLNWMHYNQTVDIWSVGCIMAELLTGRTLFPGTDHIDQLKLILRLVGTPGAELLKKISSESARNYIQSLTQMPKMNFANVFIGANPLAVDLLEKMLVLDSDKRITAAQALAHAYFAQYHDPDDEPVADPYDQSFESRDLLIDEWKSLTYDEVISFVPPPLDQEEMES

[20] = target: Fibroblast growth factor receptor 1 (Homo sapiens, UniProt P11362); test: Inhibition of FGFR1 assessed as [33P]gamma-ATP incorporation into substrate after 60 mins by gamma counting
[21] = target: Aurora kinase B (Homo sapiens, UniProt Q96GD4); test: Inhibition of Aur-B assessed as [33P]gamma-ATP incorporation into substrate after 60 mins by gamma counting
Sequence of Aurora kinase B (Q96GD4 whole entry): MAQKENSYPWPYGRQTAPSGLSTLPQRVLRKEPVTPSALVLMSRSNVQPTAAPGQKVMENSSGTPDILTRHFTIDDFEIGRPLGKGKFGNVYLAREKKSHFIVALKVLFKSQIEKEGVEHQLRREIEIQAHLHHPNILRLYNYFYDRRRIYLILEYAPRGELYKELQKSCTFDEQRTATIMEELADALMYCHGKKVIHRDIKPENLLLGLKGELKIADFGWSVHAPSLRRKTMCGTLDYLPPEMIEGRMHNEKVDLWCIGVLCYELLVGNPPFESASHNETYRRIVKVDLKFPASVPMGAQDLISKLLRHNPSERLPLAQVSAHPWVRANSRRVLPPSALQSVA

[22] = target: Tyrosine-protein kinase ZAP-70 (Homo sapiens, UniProt P43403); test: Inhibition of ZAP70 assessed as [33P]gamma-ATP incorporation into substrate after 60 mins by gamma counting
[23] = target: Proto-oncogene tyrosine-protein kinase ROS (Homo sapiens, UniProt P08922); test: Inhibition of ROS1 assessed as [33P]gamma-ATP incorporation into substrate after 60 mins by gamma counting
Sequence of Proto-oncogene tyrosine-protein kinase ROS (P08922 whole entry): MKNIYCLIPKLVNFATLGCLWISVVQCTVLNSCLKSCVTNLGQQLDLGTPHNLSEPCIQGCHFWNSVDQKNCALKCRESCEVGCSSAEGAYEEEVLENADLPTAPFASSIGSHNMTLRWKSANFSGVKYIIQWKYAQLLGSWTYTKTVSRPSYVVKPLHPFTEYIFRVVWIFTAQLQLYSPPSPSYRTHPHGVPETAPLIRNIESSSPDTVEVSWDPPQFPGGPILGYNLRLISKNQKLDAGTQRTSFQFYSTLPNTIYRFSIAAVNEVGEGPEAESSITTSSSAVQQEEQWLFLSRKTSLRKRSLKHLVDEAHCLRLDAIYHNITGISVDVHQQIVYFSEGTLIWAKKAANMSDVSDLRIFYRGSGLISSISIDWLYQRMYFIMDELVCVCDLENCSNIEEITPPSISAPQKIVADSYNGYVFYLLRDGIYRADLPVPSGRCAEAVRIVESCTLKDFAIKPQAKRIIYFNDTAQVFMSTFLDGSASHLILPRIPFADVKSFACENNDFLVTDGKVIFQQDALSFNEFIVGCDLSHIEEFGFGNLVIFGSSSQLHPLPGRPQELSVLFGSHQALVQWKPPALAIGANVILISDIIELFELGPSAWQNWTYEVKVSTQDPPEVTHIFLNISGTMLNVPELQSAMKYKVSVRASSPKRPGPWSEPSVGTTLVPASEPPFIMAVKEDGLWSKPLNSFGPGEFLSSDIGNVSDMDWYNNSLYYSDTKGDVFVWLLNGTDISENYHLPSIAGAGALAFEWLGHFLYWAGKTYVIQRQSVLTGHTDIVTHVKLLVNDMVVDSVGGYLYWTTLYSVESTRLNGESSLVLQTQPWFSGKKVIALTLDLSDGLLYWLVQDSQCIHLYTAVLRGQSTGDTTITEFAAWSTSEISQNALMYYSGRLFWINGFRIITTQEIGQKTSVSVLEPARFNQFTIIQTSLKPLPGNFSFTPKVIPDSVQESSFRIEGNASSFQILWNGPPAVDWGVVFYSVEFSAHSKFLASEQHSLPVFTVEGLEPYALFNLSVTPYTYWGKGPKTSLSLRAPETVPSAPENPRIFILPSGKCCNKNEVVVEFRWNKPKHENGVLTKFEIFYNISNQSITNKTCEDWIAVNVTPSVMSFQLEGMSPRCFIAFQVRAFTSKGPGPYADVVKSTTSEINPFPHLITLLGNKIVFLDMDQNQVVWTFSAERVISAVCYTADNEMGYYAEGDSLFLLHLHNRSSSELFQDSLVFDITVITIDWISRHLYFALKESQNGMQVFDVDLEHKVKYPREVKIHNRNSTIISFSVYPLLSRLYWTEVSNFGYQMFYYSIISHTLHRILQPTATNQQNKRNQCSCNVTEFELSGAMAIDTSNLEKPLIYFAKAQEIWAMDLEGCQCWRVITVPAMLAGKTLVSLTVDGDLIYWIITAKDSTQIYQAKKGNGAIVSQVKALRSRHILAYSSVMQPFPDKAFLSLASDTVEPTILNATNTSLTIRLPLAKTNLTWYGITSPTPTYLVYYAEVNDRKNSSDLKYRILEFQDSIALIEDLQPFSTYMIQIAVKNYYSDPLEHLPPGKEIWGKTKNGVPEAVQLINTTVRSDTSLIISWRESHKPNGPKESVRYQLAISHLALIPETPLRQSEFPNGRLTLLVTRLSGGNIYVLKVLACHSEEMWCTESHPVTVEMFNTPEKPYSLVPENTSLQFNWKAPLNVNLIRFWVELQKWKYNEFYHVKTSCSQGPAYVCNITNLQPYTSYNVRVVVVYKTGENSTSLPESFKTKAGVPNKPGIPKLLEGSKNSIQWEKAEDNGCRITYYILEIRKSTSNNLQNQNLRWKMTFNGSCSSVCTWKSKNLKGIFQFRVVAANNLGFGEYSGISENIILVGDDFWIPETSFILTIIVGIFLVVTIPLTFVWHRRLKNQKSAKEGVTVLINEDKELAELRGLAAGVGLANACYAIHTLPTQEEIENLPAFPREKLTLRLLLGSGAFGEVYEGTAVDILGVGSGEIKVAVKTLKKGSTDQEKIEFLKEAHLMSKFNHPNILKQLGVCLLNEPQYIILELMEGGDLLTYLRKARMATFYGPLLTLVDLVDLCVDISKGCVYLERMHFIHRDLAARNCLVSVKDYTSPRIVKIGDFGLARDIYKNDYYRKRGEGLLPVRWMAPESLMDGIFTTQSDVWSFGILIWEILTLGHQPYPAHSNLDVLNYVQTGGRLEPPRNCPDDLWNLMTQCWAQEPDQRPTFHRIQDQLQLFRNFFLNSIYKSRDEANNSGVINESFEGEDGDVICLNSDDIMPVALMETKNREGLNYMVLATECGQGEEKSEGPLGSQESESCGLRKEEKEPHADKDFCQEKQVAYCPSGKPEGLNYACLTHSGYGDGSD

[24] = target: Serine/threonine-protein kinase Chk1 (Homo sapiens, UniProt O14757); test: Inhibition of CHK1 assessed as [33P]gamma-ATP incorporation into substrate after 60 mins by gamma counting
Sequence of Serine/threonine-protein kinase Chk1 (O14757 whole entry): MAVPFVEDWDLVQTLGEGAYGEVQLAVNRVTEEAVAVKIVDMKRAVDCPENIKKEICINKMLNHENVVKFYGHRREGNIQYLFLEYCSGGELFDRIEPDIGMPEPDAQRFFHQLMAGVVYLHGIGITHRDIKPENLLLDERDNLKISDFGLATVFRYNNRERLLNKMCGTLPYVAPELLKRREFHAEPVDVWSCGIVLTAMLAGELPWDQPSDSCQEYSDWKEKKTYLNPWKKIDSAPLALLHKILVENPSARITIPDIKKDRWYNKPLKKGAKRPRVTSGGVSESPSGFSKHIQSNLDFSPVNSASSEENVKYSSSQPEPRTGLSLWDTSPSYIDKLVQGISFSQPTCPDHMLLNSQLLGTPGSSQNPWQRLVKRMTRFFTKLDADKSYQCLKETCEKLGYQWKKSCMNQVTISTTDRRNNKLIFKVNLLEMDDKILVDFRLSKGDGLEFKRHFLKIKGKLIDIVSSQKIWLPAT

[25] = target: Cyclin-dependent kinase 4/cyclin D1 (Homo sapiens, UniProt P11802); test: Inhibition of CDK4/CYCD1 assessed as [33P]gamma-ATP incorporation into substrate after 60 mins by gamma counting; format: protein-complex assay
[26] = target: Serine/threonine-protein kinase Nek6 (Homo sapiens, UniProt Q9HC98); test: Inhibition of NEK6 assessed as [33P]gamma-ATP incorporation into substrate after 60 mins by gamma counting
[27] = target: Aurora kinase A (Homo sapiens, UniProt O14965); test: Inhibition of Aur-A assessed as [33P]gamma-ATP incorporation into substrate after 60 mins by gamma counting
[28] = target: Mitotic checkpoint serine/threonine-protein kinase BUB1 (Homo sapiens, UniProt O43683); test: Inhibition of BUB1 assessed as [33P]gamma-ATP incorporation into substrate after 60 mins by gamma counting
[29] = tested on: HCT-116; test: Antitumor activity against human HCT116 cells xenografted in CD1 nu/nu mouse assessed as tumor growth inhibition at 60 mg/kg, po administered once daily for 1 to 10 days measured on day 23; format: functional; conditions: read-out: TGI
[30] = Inhibition of SULU1 assessed as [33P]gamma-ATP incorporation into substrate after 60 mins by gamma counting
[31] = target: cAMP-dependent protein kinase catalytic subunit alpha (Homo sapiens, UniProt P17612); test: Inhibition of PKAalpha assessed as [33P]gamma-ATP incorporation into substrate after 60 mins by gamma counting
[32] = target: Eukaryotic translation initiation factor 2-alpha kinase 3 (Homo sapiens, UniProt Q9NZJ5); test: Inhibition of PERK assessed as [33P]gamma-ATP incorporation into substrate after 60 mins by gamma counting
[33] = target: RAC-alpha serine/threonine-protein kinase (Homo sapiens, UniProt P31749); test: Inhibition of AKT1 assessed as [33P]gamma-ATP incorporation into substrate after 60 mins by gamma counting
[34] = target: Protein-tyrosine kinase 6 (Homo sapiens, UniProt Q13882); test: Inhibition of BRK assessed as [33P]gamma-ATP incorporation into substrate after 60 mins by gamma counting
[35] = Intrinsic clearance in human liver microsomes at 1 uM; format: ADME, Microsome

With `CN1CCN(c2ccc(OC(F)(F)F)c(Nc3ncc4c(n3)-c3c(c(C(N)=O)nn3CCO)CC4)c2)CC1` [ONVANSERTIB] the IC50 [1] was greater than 10 µM, the Activity [2] was “Non-toxic” and the Activity [3] was “Non-toxic”. For the same compound, the Activity [4] was 18%, the IC50 [5] was greater than 10 µM and the IC50 [6] was greater than 10 µM. For the same compound, the IC50 [7] was greater than 10 µM, the IC50 [8] was greater than 10 µM and the IC50 [9] was greater than 10 µM. For the same compound, the IC50 [10] was greater than 10 µM, the solubility [11] was greater than 3400 µg/mL and the IC50 [12] was greater than 10 µM. It also gave an IC50 [13] of […], an IC50 [14] greater than 10 µM and an IC50 [15] greater than 10 µM. For the same compound, the IC50 [16] was greater than 10 µM, the Papp [17] was 49.6 ×10⁻⁶ cm/s and the IC50 [18] was greater than 10 µM. For the same compound, the IC50 [19] was greater than 10 µM, the IC50 [20] was greater than 10 µM and the IC50 [21] was greater than 10 µM. For the same compound, the IC50 [22] was greater than 10 µM, the IC50 [23] was greater than 10 µM and the IC50 [24] was greater than 10 µM. The IC50 [25] was greater than 10 µM, the IC50 [26] was greater than 10 µM and the IC50 [27] was greater than 10 µM. The IC50 [28] was greater than 10 µM, the inhibition in vivo at 60 mg/kg [29] was 89% and the IC50 [30] was greater than 10 µM. The IC50 [31] was greater than 10 µM, the IC50 [32] was greater than 10 µM and the IC50 [33] was greater than 10 µM. For the same compound, the IC50 [34] was greater than 10 µM and the CLint scaled at 1 µM [35] was 16.9 mL/min/kg.
